# Test results reported in PubChem BioAssay AID2060508 (Molecular Pharmacology Branch, DTP, NCI, 2025).
# pIC50: −log10 of the molar value.
# Tested on: 454973-116-R2-J3-PDC spheroids, viability, % test/control
# Assay: Anticancer human tumor 454973-116-R2-J3-PDC patient-derived pancreatic carcinoma cell line growth inhibition [GQUAD]
# Details: spheroids with HUVEC and MSC; for pIC50: curve of first compound; for viability, T/C: stronger effect = lower value
# Method in brief: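 Tumor cells were grown as complex spheroids with HUVEC endothelial cells and mesenchymal stem cells as stroma. G-quadruplex stabilizers were combined with targeted agents over half-log dilutions from near the clinical Cmax, or from 10 microM.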
# [1] = second compound 0.0316 µM, first compound 0.0316 µM
# [2] = second compound 0.0316 µM, first compound 0.316 µM
# [3] = second compound 0.1 µM, first compound 0.0316 µM
# [4] = second compound 0.1 µM, first compound 0.316 µM
# [5] = second compound 0.316 µM, first compound 0.0316 µM
# [6] = second compound 0.316 µM, first compound 0.316 µM
# [7] = second compound 1 µM, first compound 0.0316 µM
# [8] = second compound 1 µM, first compound 0.316 µM
# [9] = second compound 3.16 µM, first compound 0.0316 µM
# [10] = second compound 3.16 µM, first compound 0.316 µM
# [11] = second compound 10 µM, first compound 0.0316 µM
# [12] = second compound 10 µM, first compound 0.316 µM
# 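Further: spheroids exposed to compounds for seven days.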
# 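Wherever viability, T/C is given: 100% = DMSO vehicle control viability.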
smiles,measurement,setting,value
C#Cc1c(F)ccc2cc(O)cc(-c3ncc4c(N5CC6CCC(C5)N6)nc(OCC56CCCN5CC(F)C6)nc4c3F)c12 (centres undefined) + Cc1[nH]c2ccc(F)cc2c1-c1nc2c3cccnc3c3ncccc3c2[nH]1,pIC50,second compound 0.0316 µM,7.26
same,pIC50,second compound 0.1 µM,7.14
same,pIC50,second compound 0.316 µM,7.25
same,pIC50,second compound 1 µM,7.24
same,pIC50,second compound 3.16 µM,7.46
same,pIC50,second compound 10 µM,> 7.50
same,"viability, T/C",[1],59.5%
same,"viability, T/C","second compound 0.0316 µM, first compound 0.1 µM",40.2%
same,"viability, T/C",[2],27.5%
same,"viability, T/C","second compound 0.0316 µM, first compound 1 µM",25.1%
same,"viability, T/C","second compound 0.0316 µM, first compound 3.16 µM",21.5%
same,"viability, T/C","second compound 0.0316 µM, first compound 10 µM",15.5%
same,"viability, T/C",[3],63.5%
same,"viability, T/C","second compound 0.1 µM, first compound 0.1 µM",43.4%
same,"viability, T/C",[4],34.5%
same,"viability, T/C","second compound 0.1 µM, first compound 1 µM",24.4%
same,"viability, T/C","second compound 0.1 µM, first compound 3.16 µM",21.9%
same,"viability, T/C","second compound 0.1 µM, first compound 10 µM",17%
same,"viability, T/C",[5],57.2%
same,"viability, T/C","second compound 0.316 µM, first compound 0.1 µM",45.2%
same,"viability, T/C",[6],27.7%
same,"viability, T/C","second compound 0.316 µM, first compound 1 µM",23.9%
same,"viability, T/C","second compound 0.316 µM, first compound 3.16 µM",29.6%
same,"viability, T/C","second compound 0.316 µM, first compound 10 µM",17.5%
same,"viability, T/C",[7],58.6%
same,"viability, T/C","second compound 1 µM, first compound 0.1 µM",41.8%
same,"viability, T/C",[8],29.8%
same,"viability, T/C","second compound 1 µM, first compound 1 µM",22.9%
same,"viability, T/C","second compound 1 µM, first compound 3.16 µM",17.6%
same,"viability, T/C","second compound 1 µM, first compound 10 µM",15.4%
same,"viability, T/C",[9],52.1%
same,"viability, T/C","second compound 3.16 µM, first compound 0.1 µM",35.5%
same,"viability, T/C",[10],27.2%
same,"viability, T/C","second compound 3.16 µM, first compound 1 µM",21.1%
same,"viability, T/C","second compound 3.16 µM, first compound 3.16 µM",19.6%
same,"viability, T/C","second compound 3.16 µM, first compound 10 µM",12.8%
same,"viability, T/C",[11],48.1%
same,"viability, T/C","second compound 10 µM, first compound 0.1 µM",36.9%
same,"viability, T/C",[12],26.2%
same,"viability, T/C","second compound 10 µM, first compound 1 µM",17.6%
same,"viability, T/C","second compound 10 µM, first compound 3.16 µM",16.8%
same,"viability, T/C","second compound 10 µM, first compound 10 µM",12.3%
Cn1ncnc1[C@H]1c2n[nH]c(=O)c3cc(F)cc(c23)N[C@@H]1c1ccc(F)cc1 + Cc1cnc(CNC(=O)c2c(=O)c3ccc(N4CCCN(C)CC4)nc3n3c2sc2ccccc23)cn1,pIC50,second compound 0.0316 µM,< 6.50
same,pIC50,second compound 0.1 µM,7.11
same,pIC50,second compound 0.316 µM,7.29
same,pIC50,second compound 1 µM,< 6.50
same,pIC50,second compound 3.16 µM,< 6.50
same,pIC50,second compound 10 µM,> 9.00
same,"viability, T/C","second compound 0.0316 µM, first compound 0.000999 µM",108%
same,"viability, T/C","second compound 0.0316 µM, first compound 0.00316 µM",90.2%
same,"viability, T/C","second compound 0.0316 µM, first compound 0.00999 µM",91.4%
same,"viability, T/C",[1],80.8%
same,"viability, T/C","second compound 0.0316 µM, first compound 0.0999 µM",70%
same,"viability, T/C",[2],59%
same,"viability, T/C","second compound 0.1 µM, first compound 0.000999 µM",83.1%
same,"viability, T/C","second compound 0.1 µM, first compound 0.00316 µM",88.3%
same,"viability, T/C","second compound 0.1 µM, first compound 0.00999 µM",71.8%
same,"viability, T/C",[3],60%
same,"viability, T/C","second compound 0.1 µM, first compound 0.0999 µM",48.8%
same,"viability, T/C",[4],36.6%
same,"viability, T/C","second compound 0.316 µM, first compound 0.000999 µM",75.8%
same,"viability, T/C","second compound 0.316 µM, first compound 0.00316 µM",70.3%
same,"viability, T/C","second compound 0.316 µM, first compound 0.00999 µM",65.3%
same,"viability, T/C",[5],51.4%
same,"viability, T/C","second compound 0.316 µM, first compound 0.0999 µM",47.2%
same,"viability, T/C",[6],41.6%
same,"viability, T/C","second compound 1 µM, first compound 0.000999 µM",64.1%
same,"viability, T/C","second compound 1 µM, first compound 0.00316 µM",64.6%
same,"viability, T/C","second compound 1 µM, first compound 0.00999 µM",62%
same,"viability, T/C",[7],53.3%
same,"viability, T/C","second compound 1 µM, first compound 0.0999 µM",56.3%
same,"viability, T/C",[8],48.6%
same,"viability, T/C","second compound 3.16 µM, first compound 0.000999 µM",62.1%
same,"viability, T/C","second compound 3.16 µM, first compound 0.00316 µM",53.4%
same,"viability, T/C","second compound 3.16 µM, first compound 0.00999 µM",60.2%
same,"viability, T/C",[9],58.5%
same,"viability, T/C","second compound 3.16 µM, first compound 0.0999 µM",57.1%
same,"viability, T/C",[10],53.6%
same,"viability, T/C","second compound 10 µM, first compound 0.000999 µM",0.31%
same,"viability, T/C","second compound 10 µM, first compound 0.00316 µM",0.55%
same,"viability, T/C","second compound 10 µM, first compound 0.00999 µM",31%
same,"viability, T/C",[11],36.7%
same,"viability, T/C","second compound 10 µM, first compound 0.0999 µM",0.53%
same,"viability, T/C",[12],0.27%
